Data published in US4257941A, “Polycyclic nitrogen-containing compounds” (BASF Aktiengesellschaft, priority 1976, dated 1981).
Structures can show the parent of a compound that is named as a salt.

Test system: lawns
Experiment: Long-term action on lawns (Example 14)
Assay type: in vivo
Conditions: for First cutting, green weight relative / First cutting, growth height relative / Second cutting, green weight relative / Second cutting, growth height relative / Third cutting, green weight relative: control 100

SMILES | First cutting, green weight (0.5 kg/ha) [g] | First cutting, growth height (0.5 kg/ha) [cm] | Second cutting, green weight (0.5 kg/ha) [g] | Second cutting, growth height (0.5 kg/ha) [cm] | Third cutting, green weight (0.5 kg/ha) [g] | First cutting, green weight relative (0.5 kg/ha) | First cutting, growth height relative (0.5 kg/ha) | Second cutting, green weight relative (0.5 kg/ha) | Second cutting, growth height relative (0.5 kg/ha) | Third cutting, green weight relative (0.5 kg/ha) | First cutting, green weight (1.0 kg/ha) [g] | First cutting, growth height (1.0 kg/ha) [cm] | Second cutting, green weight (1.0 kg/ha) [g] | Second cutting, growth height (1.0 kg/ha) [cm] | Third cutting, green weight (1.0 kg/ha) [g] | First cutting, green weight relative (1.0 kg/ha) | First cutting, growth height relative (1.0 kg/ha) | Second cutting, green weight relative (1.0 kg/ha) | Second cutting, growth height relative (1.0 kg/ha) | Third cutting, green weight relative (1.0 kg/ha) | also measured
Brc1ccc(N2N=NC3C4CC(C5N=NC45)C32)cc1 (stereo not drawn) [drawing 380] | 25.5 | 14.5 | 27.8 | 14.5 | 16.5 | 72.2 | 80.6 | 104.1 | 98.6 | 108.6 | 24.4 | 12.5 | 25.1 | 11.5 | 16.5 | 69.1 | 69.5 | 94.0 | 78.2 | 108.6 | First cutting, green weight (2.0 kg/ha): 22.0 g; First cutting, growth height (2.0 kg/ha): 11.0 cm; Second cutting, green weight (2.0 kg/ha): 18.7 g; Second cutting, growth height (2.0 kg/ha): 8.0 cm; Third cutting, green weight (2.0 kg/ha): 14.0 g; First cutting, green weight relative (2.0 kg/ha): 62.3; First cutting, growth height relative (2.0 kg/ha): 61.1; Second cutting, green weight relative (2.0 kg/ha): 70.0; Second cutting, growth height relative (2.0 kg/ha): 54.4; Third cutting, green weight relative (2.0 kg/ha): 92.1; First cutting, green weight (4.0 kg/ha): 16.5 g; First cutting, growth height (4.0 kg/ha): 10.5 cm; Second cutting, green weight (4.0 kg/ha): 13.2 g; Second cutting, growth height (4.0 kg/ha): 7.0 cm; Third cutting, green weight (4.0 kg/ha): 10.3 g; First cutting, green weight relative (4.0 kg/ha): 46.7; First cutting, growth height relative (4.0 kg/ha): 58.3; Second cutting, green weight relative (4.0 kg/ha): 49.4; Second cutting, growth height relative (4.0 kg/ha): 47.6; Third cutting, green weight relative (4.0 kg/ha): 67.8
CC(=O)Nc1ccc(C)c(NS(=O)(=O)C(F)(F)F)c1 [S, diethanolamine salt of 3-trifluoromethylsulfonamido-p-acetotoluidide, reference compound] | 26.7 | 14.5 | 27.3 | 14.0 | 15.6 | 75.6 | 80.6 | 102.2 | 95.2 | 102.6 | 23.0 | 13.0 | 27.6 | 12.5 | 15.0 | 65.2 | 72.2 | 103.4 | 85.0 | 98.6 | First cutting, green weight (2.0 kg/ha): 12.6 g; First cutting, growth height (2.0 kg/ha): 10.5 cm; Second cutting, green weight (2.0 kg/ha): 20.1 g; Second cutting, growth height (2.0 kg/ha): 9.5 cm; Third cutting, green weight (2.0 kg/ha): 13.7 g; First cutting, green weight relative (2.0 kg/ha): 35.7; First cutting, growth height relative (2.0 kg/ha): 58.3; Second cutting, green weight relative (2.0 kg/ha): 75.3; Second cutting, growth height relative (2.0 kg/ha): 64.6; Third cutting, green weight relative (2.0 kg/ha): 90.1; First cutting, green weight (4.0 kg/ha): 9.4 g; First cutting, growth height (4.0 kg/ha): 9.0 cm; Second cutting, green weight (4.0 kg/ha): 9.6 g; Second cutting, growth height (4.0 kg/ha): 4.5 cm; Third cutting, green weight (4.0 kg/ha): 10.4 g; First cutting, green weight relative (4.0 kg/ha): 26.6; First cutting, growth height relative (4.0 kg/ha): 50.0; Second cutting, green weight relative (4.0 kg/ha): 36.0; Second cutting, growth height relative (4.0 kg/ha): 30.6; Third cutting, green weight relative (4.0 kg/ha): 68.4
c1cc2sncc2cc1N1N=NC2C3CC(C4N=NC34)C21 (stereo not drawn) [drawing 382] | 31.8 | 18.5 | 28.8 | 14.0 | 15.5 | 90.1 | 102.8 | 107.9 | 95.2 | 102.0 | 27.1 | 16.5 | 25.8 | 13.0 | 15.3 | 76.8 | 91.7 | 96.6 | 88.4 | 100.7 | First cutting, green weight (2.0 kg/ha): 20.3 g; First cutting, growth height (2.0 kg/ha): 14.5 cm; Second cutting, green weight (2.0 kg/ha): 19.1 g; Second cutting, growth height (2.0 kg/ha): 9.0 cm; Third cutting, green weight (2.0 kg/ha): 12.8 g; First cutting, green weight relative (2.0 kg/ha): 57.5; First cutting, growth height relative (2.0 kg/ha): 80.6; Second cutting, green weight relative (2.0 kg/ha): 71.5; Second cutting, growth height relative (2.0 kg/ha): 61.2; Third cutting, green weight relative (2.0 kg/ha): 84.2; First cutting, green weight (4.0 kg/ha): 19.5 g; First cutting, growth height (4.0 kg/ha): 12.5 cm; Second cutting, green weight (4.0 kg/ha): 16.8 g; Second cutting, growth height (4.0 kg/ha): 7.0 cm; Third cutting, green weight (4.0 kg/ha): 12.8 g; First cutting, green weight relative (4.0 kg/ha): 55.2; First cutting, growth height relative (4.0 kg/ha): 69.5; Second cutting, green weight relative (4.0 kg/ha): 62.9; Second cutting, growth height relative (4.0 kg/ha): 47.6; Third cutting, green weight relative (4.0 kg/ha): 84.2
